These results are taken from article PMC8283659 (ACS chemical neuroscience, 2020).

Structures are written as SMILES. Where two headings read alike, the source gives them in different places.

The target in experiment [1] is SERT (Rattus norvegicus, UniProt P31652). The experiment can be described thus: SERT radioligand binding assay. Conditions: for pKi ± S.E.M. SERT [3H]Citalopram: rat brain membranes (stem in methods), mean ± S.E.M., 3 independent experiments.
For experiment [2], the target named is DAT (Rattus norvegicus, UniProt P23977). The experiment can be described thus: DAT radioligand binding assay. The settings on record: for pKi ± S.E.M. DAT [3H]WIN 35,428: mean ± S.E.M., 3 independent experiments.
In experiment [3] the target is DAT. The settings on record: read-out: DAT Ki; cited from earlier work.
Experiment [4] deals with human DAT (hDAT) (Homo sapiens, UniProt Q01959). The experiment can be described thus: [3H]dopamine uptake inhibition in CAD cells transiently expressing hDAT. Format: cell-based.
The target of experiment [5] is NET (Rattus norvegicus, UniProt Q63380). The experiment can be described thus: NET radioligand binding assay.
For experiment [6], the target named is EGFP-hDAT (Homo sapiens, UniProt Q01959). The experiment can be described thus: TIRF microscopy of surface labeling of EGFP-hDAT-expressing CAD cells. In kind it is cell-based. The settings on record: 10 nM ligand, 10 min, rt; fixed cells.
Setting [7] is: read-out: Ki DAT [3H]WIN 35,428, rat striatum membranes, value in parentheses.
[8] abbreviates: IC50 DAT [3H]DA, value in parentheses.
[9] abbreviates: pIC50 ± S.E.M. DAT [3H]DA, 20 nM [3H]DA, 5 min, rt.

Sequence of SERT (P31652 whole entry): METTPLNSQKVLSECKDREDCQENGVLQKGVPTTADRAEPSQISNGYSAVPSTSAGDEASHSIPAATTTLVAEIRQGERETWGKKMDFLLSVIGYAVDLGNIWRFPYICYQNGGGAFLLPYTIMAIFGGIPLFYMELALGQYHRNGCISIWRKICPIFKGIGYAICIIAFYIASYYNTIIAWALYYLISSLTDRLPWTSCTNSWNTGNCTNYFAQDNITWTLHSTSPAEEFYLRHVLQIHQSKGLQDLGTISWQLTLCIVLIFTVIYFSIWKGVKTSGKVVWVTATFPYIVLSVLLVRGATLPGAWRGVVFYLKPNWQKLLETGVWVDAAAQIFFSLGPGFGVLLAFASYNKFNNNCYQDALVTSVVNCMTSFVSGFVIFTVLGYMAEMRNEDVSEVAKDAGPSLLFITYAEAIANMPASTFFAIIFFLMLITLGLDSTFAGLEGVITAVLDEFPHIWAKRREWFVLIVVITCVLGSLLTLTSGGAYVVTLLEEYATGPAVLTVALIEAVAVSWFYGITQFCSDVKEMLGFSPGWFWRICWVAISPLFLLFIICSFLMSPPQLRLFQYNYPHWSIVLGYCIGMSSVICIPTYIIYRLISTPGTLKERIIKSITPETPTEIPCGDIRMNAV
Sequence of DAT (Rattus norvegicus, UniProt P23977) (P23977 whole entry): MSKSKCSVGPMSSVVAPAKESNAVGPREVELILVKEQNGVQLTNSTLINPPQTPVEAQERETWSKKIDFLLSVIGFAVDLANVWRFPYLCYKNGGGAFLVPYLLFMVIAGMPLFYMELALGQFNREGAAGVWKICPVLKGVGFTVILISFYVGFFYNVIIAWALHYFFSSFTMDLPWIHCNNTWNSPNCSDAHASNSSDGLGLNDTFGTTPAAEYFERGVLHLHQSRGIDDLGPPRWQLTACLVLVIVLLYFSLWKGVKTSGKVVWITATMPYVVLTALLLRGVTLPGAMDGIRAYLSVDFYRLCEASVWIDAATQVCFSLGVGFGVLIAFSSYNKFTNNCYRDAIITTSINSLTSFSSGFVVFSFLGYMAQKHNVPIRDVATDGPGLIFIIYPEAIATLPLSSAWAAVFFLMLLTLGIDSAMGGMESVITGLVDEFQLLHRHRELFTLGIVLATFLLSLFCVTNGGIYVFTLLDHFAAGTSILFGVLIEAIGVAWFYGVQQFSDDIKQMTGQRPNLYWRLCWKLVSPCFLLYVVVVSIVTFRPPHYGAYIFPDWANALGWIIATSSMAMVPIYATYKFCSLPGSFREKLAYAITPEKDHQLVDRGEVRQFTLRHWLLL
Sequence of human DAT (hDAT) (Q01959 whole entry): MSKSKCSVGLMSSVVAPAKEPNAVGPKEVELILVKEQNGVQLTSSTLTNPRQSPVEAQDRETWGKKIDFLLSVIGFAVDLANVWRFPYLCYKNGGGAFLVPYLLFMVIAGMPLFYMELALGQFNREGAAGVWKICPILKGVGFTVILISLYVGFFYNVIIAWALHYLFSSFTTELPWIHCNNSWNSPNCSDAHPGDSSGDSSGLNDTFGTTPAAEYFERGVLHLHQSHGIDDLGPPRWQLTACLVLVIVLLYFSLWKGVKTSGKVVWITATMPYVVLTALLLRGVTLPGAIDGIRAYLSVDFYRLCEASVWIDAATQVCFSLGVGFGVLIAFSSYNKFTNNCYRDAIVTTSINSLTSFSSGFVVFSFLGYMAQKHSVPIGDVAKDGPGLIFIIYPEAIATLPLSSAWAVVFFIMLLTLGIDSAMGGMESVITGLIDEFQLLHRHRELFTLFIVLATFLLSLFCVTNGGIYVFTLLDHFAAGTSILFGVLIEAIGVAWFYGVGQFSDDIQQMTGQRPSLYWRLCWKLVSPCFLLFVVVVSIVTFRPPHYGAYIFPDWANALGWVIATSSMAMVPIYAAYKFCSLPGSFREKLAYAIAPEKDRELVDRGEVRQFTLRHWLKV
Sequence of EGFP-hDAT (Q01959 whole entry): as above
Sequence of NET (Q63380 1-617): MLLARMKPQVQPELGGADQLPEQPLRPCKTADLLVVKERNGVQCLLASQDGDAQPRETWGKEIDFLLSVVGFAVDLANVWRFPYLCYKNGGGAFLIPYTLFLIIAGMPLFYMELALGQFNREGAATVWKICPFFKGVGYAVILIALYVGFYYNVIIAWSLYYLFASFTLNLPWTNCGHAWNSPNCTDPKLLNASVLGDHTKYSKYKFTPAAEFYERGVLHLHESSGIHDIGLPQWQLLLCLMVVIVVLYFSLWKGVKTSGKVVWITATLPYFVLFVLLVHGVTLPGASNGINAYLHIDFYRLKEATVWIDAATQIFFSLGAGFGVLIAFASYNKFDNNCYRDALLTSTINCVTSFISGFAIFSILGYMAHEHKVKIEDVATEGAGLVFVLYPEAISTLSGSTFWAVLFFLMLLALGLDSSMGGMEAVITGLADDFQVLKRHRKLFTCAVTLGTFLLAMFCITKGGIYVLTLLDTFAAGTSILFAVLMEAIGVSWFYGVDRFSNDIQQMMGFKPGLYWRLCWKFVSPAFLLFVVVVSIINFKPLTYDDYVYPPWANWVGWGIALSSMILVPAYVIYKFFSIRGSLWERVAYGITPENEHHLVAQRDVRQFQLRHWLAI

Broadly, the Ki is a dissociation constant, usually derived from enzyme kinetics or from competition with a known ligand. For the compound `COC(=O)[C@H]1[C@@H](c2ccc(Cl)c(Cl)c2)C[C@@H]2CC[C@H]1N2C` [Compound 1, reference compound], the “pKi ± S.E.M. SERT [3H]Citalopram” value in experiment [1] was 7.99 ± 0.20. In experiment [2] (rat striatum membranes), the “pKi ± S.E.M. DAT [3H]WIN 35,428” value turned out to be 9.10 ± 0.23. Further, the Ki in experiment [2] (setting [7]) was 0.8 nM.

For `CCN(CC)c1ccc2c(-c3ccc(S(=O)(=O)NCCCCCC(=O)NCCN4C5CCC4[C@@H](C(=O)OC)[C@@H](c4ccc(Cl)c(Cl)c4)C5)cc3S(=O)(=O)[O-])c3ccc(=[N+](CC)CC)cc-3oc2c1` (some centres unmarked) [Compound 2, reference compound], the Ki was 18 nM in experiment [3] and 16 nM in experiment [2] (setting [7]). In addition, the “pKi ± S.E.M. SERT [3H]Citalopram” value in experiment [1] is on record as 7.80 ± 0.08. The “pKi ± S.E.M. DAT [3H]WIN 35,428” value in experiment [2] (rat striatum membranes) was 7.79 ± 0.09.

As a reminder, the IC50 is the concentration needed to halve the response being measured. As to `COC(=O)[C@H]1[C@@H](c2ccc(Cl)c(Cl)c2)C[C@@H]2CC[C@H]1N2CCOCCOCCNC(=O)c1ccc(C(=O)[O-])c(-c2c3ccc(=[N+]4CCC4)cc-3oc3cc(N4CCC4)ccc23)c1` [Compound 3, 2-(3-(Azetidin-1-ium-1-ylidene)-6-(azetidin-1-yl)-3H-xanthen-9-yl)-4-((2-(2-(2-((1R,2S,3S,5S)-3-(3,4-dichlorophenyl)-2-(methoxycarbonyl)-8-azabicyclo[3.2.1]octan-8-yl)ethoxy)ethoxy)ethyl)carbamoyl)benzoate], the IC50 in experiment [4] (setting [8]) was 28 nM; in experiment [4] (setting [9]), 28.2 nM. Further, the figures for the Ki in experiment [5], in experiment [1] and in experiment [2] were 225 nM, 41.7 nM and 6.03 nM, respectively. The “surface labeling of EGFP-hDAT-expressing CAD cells, TIRF microscopy (in words)” value (from here on “surface labeling”) in experiment [6] was “surface labeling was observed”.

Regarding `COC(=O)[C@H]1[C@@H](c2ccc(Cl)c(Cl)c2)C[C@@H]2CC[C@H]1N2CCOCCOCCOCCOCCOCCNC(=O)c1ccc2c(c1)C1(OC2=O)c2ccc(N3CCC3)cc2[Si](C)(C)c2cc(N3CCC3)ccc21` [Compound 4, Methyl (1R,2S,3S,5S)-8-(1-(3,7-di(azetidin-1-yl)-5,5-dimethyl-3’-oxo-3’H,5H-spiro[dibenzo[b,e]siline-10,1’-isobenzofuran]-6’-yl)-1-oxo-5,8,11,14,17-pentaoxa-2-azanonadecan-19-yl)-3-(3,4-dichlorophenyl)-8-azabicyclo[3.2.1]octane-2-carboxylate], the “pIC50 ± S.E.M. DAT [3H]DA” value in experiment [4] (20 nM [3H]DA, 5 min, rt) is 6.99 ± 0.15. The “pKi ± S.E.M. SERT [3H]Citalopram” value in experiment [1] came out at 7.37 ± 0.05. Besides, the “surface labeling” value in experiment [6] was “surface labeling was observed”. Moreover, the “pKi ± S.E.M. DAT [3H]WIN 35,428” value in experiment [2] (rat striatum membranes) was 7.55 ± 0.03. For the same compound, the Ki in experiment [2] (setting [7]) was 28 nM.

In the case of `COC(=O)[C@H]1[C@@H](c2ccc(Cl)c(Cl)c2)C[C@@H]2CC[C@H]1N2CCOCCOCCNC(=O)c1ccc2c(c1)C1(OC2=O)c2ccc(N3CCC3)cc2[Si](C)(C)c2cc(N3CCC3)ccc21` [Compound 10, Methyl (1R,2S,3S,5S)-8-(2-(2-(2-(3,7-di(azetidin-1-yl)-5,5-dimethyl-3’-oxo-3’H,5H-spiro[dibenzo[b,e]siline-10,1’-isobenzofuran]-6’-carboxamido)ethoxy)ethoxy)ethyl)-3-(3,4-dichlorophenyl)-8-azabicyclo[3.2.1]octane-2-carboxylate], the 50% inhibitory concentration (IC50) in experiment [4] (setting [8]) and in experiment [4] (setting [9]) was 1150 nM throughout. The results for the Ki in experiment [5], in experiment [1] and in experiment [2] were 468 nM, 153 nM and 112 nM, respectively.

In the case of `COC(=O)[C@H]1[C@@H](c2ccc(Cl)c(Cl)c2)C[C@@H]2CC[C@H]1N2CCN1CCN(CCCCNC(=O)c2ccc3c(c2)C2(OC3=O)c3ccc(N4CCC4)cc3[Si](C)(C)c3cc(N4CCC4)ccc32)CC1` [Compound 14, Methyl (1R,2S,3S,5S)-8-(2-(4-(4-(3,7-di(azetidin-1-yl)-5,5-dimethyl-3’-oxo-3’H,5H-spiro[dibenzo[b,e]siline-10,1’-isobenzofuran]-6’-carboxamido)butyl)piperazin-1-yl)ethyl)-3-(3,4-dichlorophenyl)-8-azabicyclo[3.2.1]octane-2-carboxylate], the IC50 in experiment [4] (setting [8]) was 160 nM; in experiment [4] (setting [9]), 158 nM. Also, the Ki was 1200 nM in experiment [5], 38 nM in experiment [1] and 38 nM in experiment [2]. In addition, in experiment [6], the “surface labeling” value was “the labeling was very punctate”.
